These results are taken from PubChem BioAssay (NCI).

Common to all, as to assay: NCI anticancer screen, dose series, 48 h
Experiment [1] concerns A549 NSCLC.
The subject of experiment [2] is ACHN renal.
In experiment [3] the test system is BT-549 breast.
The subject of experiment [4] is CAKI-1 renal.
The subject of experiment [5] is CCRF-CEM leukemia.
Experiment [6] concerns DU-145 prostate.
Experiment [7] has as its system HCT-116 colon.
The test system of experiment [8] is HCT-15 colon.
Experiment [9] has as its system HS 578T breast.
Experiment [10] concerns MCF7 breast.
For experiment [11], the system named is MDA-N.
Experiment [12] concerns NCI-H460 lung.
The subject of experiment [13] is NCI/ADR-RES ovarian.
Experiment [14] concerns OVCAR-3 ovarian.
Experiment [15] concerns RPMI-8226 leukemia.
Experiment [16] concerns SF-268 CNS.
The test system of experiment [17] is SK-MEL-2 melanoma.

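Grown in 96-well plates, cells were treated for 48 hours with each compound at five concentrations. Insufficient inhibition: endpoint recorded as highest concentration tested. TGI marks complete inhibition of growth.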

In the case of `COc1cc2nc3n(c2cc1OC)C(O)c1c(Cl)nc(SC)nc1S3` (stereo unspecified), the TGI was 48 µM in experiment [1]; 42.2 µM in experiment [2]; 9.37 µM in [3]; greater than 45.4 µM in experiment [4]; 3.91 µM in experiment [5]; 24.1 µM in experiment [6]. The TGI in experiment [7] is 10.3 µM; in experiment [8], 12.3 µM; in experiment [9], greater than 100 µM; in experiment [10], 15 µM; in experiment [11], 24 µM; in [12] it was 19.6 µM. Further, the TGI in [13] is 18.7 µM; in experiment [14] it was 13.3 µM; in experiment [15] it was greater than 37 µM; in experiment [16], greater than 100 µM; in experiment [17], greater than 27.2 µM.

Take `Cc1ccc(-c2n[nH]c(=O)n2/N=C\c2ccccc2O)cc1`: the TGI in experiment [1], in experiment [2], in experiment [3], in experiment [4], in experiment [5] and in experiment [6] was greater than 100 µM each time. For the same molecule, the TGI in [7], in experiment [8], in experiment [9], in experiment [10], in experiment [11] and in experiment [12] was greater than 100 µM throughout. For the same molecule, the TGI in experiment [13], in experiment [14], in [15], in [16] and in [17] was greater than 100 µM throughout.

Regarding `N#Cc1cc2c(cc1C#N)SCCSCCCSCCS2`, the TGI in experiment [1] was greater than 100 µM; in experiment [2], 19.4 µM; in [3] it was 31.2 µM; in experiment [4], greater than 57.8 µM; in experiment [5] it was greater than 75 µM; in [6], greater than 100 µM. Moreover, the TGI in experiment [7] is greater than 86.6 µM; in experiment [8] it was 34.9 µM; in experiment [9], 28.8 µM; in experiment [10] it was greater than 100 µM; in experiment [11], greater than 100 µM; in experiment [12], greater than 53.8 µM. Besides, the TGI in [13] was greater than 100 µM; in experiment [14] it was greater than 100 µM; in [15], greater than 100 µM; in [16], 29.9 µM; in [17], 42.8 µM.

As to `CC1=C(O)C(=O)C=C2C1=CC=C1[C@@]2(C)CC[C@@]2(C)C3C[C@@H](C)C(=O)[C@@H](O)[C@]3(C)CC[C@]12C` (stereo partly specified), the TGI in experiment [1] was determined as 28.5 µM; in [2] it was 3.07 µM; in experiment [3] it was 3.4 µM; in experiment [4] it was 2.83 µM; in experiment [5] it was 1.87 µM; in experiment [6], 3.38 µM. The TGI is 3.21 µM in experiment [7]; 3.73 µM in experiment [8]; greater than 84.8 µM in experiment [9]; 11 µM in [10]; 3.3 µM in experiment [11]; 37.6 µM in experiment [12]. In addition, the TGI in experiment [13] was determined as 9.55 µM; in experiment [14], 3.6 µM; in experiment [15], 5.08 µM; in experiment [16] it was 11 µM; in [17], 9.85 µM.

On to `CC(CN1NC12CCCC2)N1NC12CCCC2` (stereo unspecified), for which the TGI in experiment [1], in experiment [2], in [3], in experiment [4], in [5] and in experiment [6] was greater than 100 µM each time. Moreover, the TGI in experiment [7], in experiment [8], in experiment [9], in experiment [10], in [11] and in experiment [12] was greater than 100 µM each time. Moreover, the TGI in experiment [13], in experiment [14], in experiment [15], in experiment [16] and in [17] was greater than 100 µM each time.

Consider `CCCCNC(=O)OCCN=c1c2ccccc2ccc2ccccc12`, for which the TGI in experiment [1], in experiment [2], in experiment [3], in experiment [4], in experiment [5] and in experiment [6] was greater than 100 µM throughout. In addition, the TGI in [7], in experiment [8], in experiment [9], in [10], in experiment [11] and in experiment [12] was greater than 100 µM in each case. Besides, the TGI in experiment [13], in experiment [14], in [15], in experiment [16] and in experiment [17] was greater than 100 µM each time.

`C=CC(=O)NCCC(=O)OCn1cc(F)c(=O)[nH]c1=O`: the TGI in [1], in experiment [2], in experiment [3], in experiment [4], in [5] and in [6] was greater than 100 µM each time. Moreover, the TGI in [7] was 66.8 µM; in experiment [8], greater than 100 µM; in experiment [9] it was greater than 100 µM; in experiment [10], greater than 100 µM; in experiment [11], greater than 100 µM; in experiment [12], 2.34 µM. Also, the TGI in experiment [13], in [14], in [15], in [16] and in experiment [17] was greater than 100 µM in each case.

As for `COC(=O)c1c(O)c(C#N)c2[nH]c3ccccc3n2c1=O`, the TGI in experiment [1], in [2], in experiment [3], in experiment [4], in experiment [5] and in experiment [6] was greater than 100 µM throughout. In addition, the TGI in [7], in experiment [8], in [9], in experiment [10], in [11] and in experiment [12] was greater than 100 µM in each case. Besides, the TGI in experiment [13], in experiment [14], in experiment [15], in experiment [16] and in experiment [17] was greater than 100 µM each time.
